Where only a bound is given, the exact number is not on record here.

The target in one series is T1, PPARγ (Homo sapiens, UniProt P37231).
T1 construct: a construct containing the entire cDNA of the human PPARγ2 (hPPARγ2); host or cells: cell-free coupled transcription/translation system
T1 sequence (P37231 1-505): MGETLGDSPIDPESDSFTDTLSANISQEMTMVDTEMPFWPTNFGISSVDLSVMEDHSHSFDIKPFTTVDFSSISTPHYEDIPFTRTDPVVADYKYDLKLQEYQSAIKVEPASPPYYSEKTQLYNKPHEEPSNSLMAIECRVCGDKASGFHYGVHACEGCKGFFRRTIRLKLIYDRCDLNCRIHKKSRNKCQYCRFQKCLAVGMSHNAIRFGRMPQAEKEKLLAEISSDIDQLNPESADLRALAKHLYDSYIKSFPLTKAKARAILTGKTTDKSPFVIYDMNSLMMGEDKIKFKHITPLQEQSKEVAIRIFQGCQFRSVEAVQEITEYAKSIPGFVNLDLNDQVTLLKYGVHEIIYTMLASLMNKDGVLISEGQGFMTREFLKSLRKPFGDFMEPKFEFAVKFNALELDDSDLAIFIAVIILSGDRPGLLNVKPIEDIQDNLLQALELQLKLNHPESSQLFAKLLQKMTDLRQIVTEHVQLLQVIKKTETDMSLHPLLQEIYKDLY
The series can be described thus: Protease protection (partial trypsin digestion of 35S-PPARγ). Particulars: compound 10^−4M, increasing trypsin. The format is binding.

The next series concerns the target T2, hPPARγ LBD (Homo sapiens, UniProt P37231).
T2 construct: Human PPARγ (aa. 203 to 477 of PPARγ) was subcloned into the pET15b; His-tag (N); made in house
T2 sequence (P37231 203-477 isoform P37231-2): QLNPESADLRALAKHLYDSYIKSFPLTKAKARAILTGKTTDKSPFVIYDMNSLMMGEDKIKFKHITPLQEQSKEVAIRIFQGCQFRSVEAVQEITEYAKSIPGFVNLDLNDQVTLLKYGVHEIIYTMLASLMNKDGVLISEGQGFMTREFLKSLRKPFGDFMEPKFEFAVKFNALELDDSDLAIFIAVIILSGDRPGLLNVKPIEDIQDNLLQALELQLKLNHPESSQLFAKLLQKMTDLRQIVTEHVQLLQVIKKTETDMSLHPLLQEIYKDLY
The series can be described thus: ESI-mass spectrometry of ligand binding to PPARγ LBD. An excerpt: FIG. 5: Two molecules of F-L-Leu bind to a single PPARγ molecule. ESI-mass spectrometry analysis.
The p300Nt-GST, fusion protein was generated by cloning the N-terminal part of the p300 protein (a.a. 2 to 516) downstream of the glutathione-S-transferase (GST) protein in the pGex-T1 vector (Pharmacia, Orsay, France). The fusion proteins were then expressed in Escherichia coli and purified on a glutathione affinity matrix (Pharmacia). Human PPARγ (aa. 203 to 477 of PPARγ) was subcloned into the pET15b (Novagen, Madison, Wis.) expression vector. The his-tagPPARγ2DE203-477 proteins were produced as follow. The protein was purified using a metal chelate affinity column with an affinity column Co^2+ coupled agarose (High Trap chelatin, Pharmacia). The protein was eluted with 20 mM Tris-HCl, […], 130 mM imidazole and 1-2 propanediol 2.5% (pH 8.5). A second purification step was made by gel filtration (Superdex 200 16/60, Pharmacia). The protein was eluted with 20 mM Tris-HCl, 100 mM NaCl, 5 mM DTT and 1-2 propanediol 2,5% (pH 8.5). […]
Electrospray ionization (ESI) mass spectrometry of hPPARγ LBD (amino acid 203 t ? 477) was used to identify the specific binding of F-L-Leu with PPARγ (FIG. 5). […] The mass of the receptor wa ? determined after incubation by ESI-mass spectrometry.

The subject of another series is 3T3-L1 cells. The series can be described thus: Adipocyte differentiation of 3T3-L1 cells (Northern blot, Oil Red O). The class given is cell-based, murine.
Another series concerns C57BL/6j mice. The series can be described thus: Intraperitoneal glucose tolerance test in C57BL/6j mice. The class given is in vivo. Particulars: for maximum glucose levels in IPGTT: 7 days, control 440. On the procedure:
Mice were treated with 2 different doses of F-L-Leu (10 and 30 mg/kg/days) during 7 days and then IPGTT was performed.

A further series addresses T3, PPARγ2 (Homo sapiens, UniProt P37231).
T3 sequence (P37231 1-505): T1 sequence (P37231 1-505)
The series can be described thus: Transient transfection, PPARγ2 reporter in CV1 cells. The format is cell-based. Further details: a construct containing the entire cDNA of the human PPARγ2 (hPPARγ2); expressed in transfected cells; host or cells: Hep G2, RK13 or CV1 cells. To be noted: simian renal cells CV1. On the procedure:
RK13 cells (A and D), CV1 cells (B) or Hep G2 cells (C) were co-transfected with an expression vector for PPARγ2 (0.1 μg/well), pGL3-(Jwt)3TKLuc reported construct (0.5 μg/well), and pCMV-βGal (0.5 μg/well), as a control of transfection efficiency (0.5 μg/well). They were then grown during 24 h in the presence or absence of indicated compound. Activation is expressed as relative luciferase activity/β ? galactosidase activity. Each point was performed in triplicate, and each figure i ? representative of four independent experiments.
The CV1, RK-13, and Hep G2 cell lines were obtained from ATCC (Rockville, Md.). Cells were maintained in Dulbecco's modified Eagle's minimal essential medium (DMEM) supplemented with 10% fetal calf serum (FCS), L-glutamine, and antibiotics. Transfections with chloramphenicol acetyltransferase (CAT) or luciferase (luc.) reporter constructs were carried out exactly as described previously (Schoonjans et al., 1996). The pGL3-(Jwt)3TKLuc and the pGL3-(Jwt)3TKCAT reporter constructs contain both three tandem repeats of the J site of the apolipoprotein A-II promoter cloned upstream of the herpes simplex virus thymidine kinase (TK) promoter and the luciferase or the CAT reporter genes respectively (Vu-Dac et al., 1995). […]

Setting [1] is: 3T3-L1, 10^−5 M, extent close to rosiglitazone 10^−7 M.

Description for 3T3-L1 cells: Confluent 3T3-L1 cells were incubated with 2 μM insulin, 1 μM dexamethasone, and 0.25 mM isobuthyl methyl xanthine for two days. […] A: RNA was isolated from 3T3-L1 cells after different times of differentiation induction. Blots were hybridized with 36B4 (to control for RNA loading); LPL or aP2 cDNAs. B: Cells were stained with Oil Red O after 6 days. LPL: lipoprotein lipase.
3T3-L1 cells (ATCC, Rockville, Md.) were grown to confluence in medium ? (Dulbecco's modified Eagle's Medium with 10% fetal calf serum, 100 units/n ? penicillin, and 100 μg/ml streptomycin). Confluent cells were incubated in medium ? containing 2 μM insulin, 1 μM dexamethasone, and 0.25 mM isobuthyl meth ? xanthine for two days. Then, the cells were incubated in medium A in presence ? absence of PPARγ y agonist for 4 days, changing the medium every 2 day ? Adipogenesis was evaluated by analysis of the expression of adipocyte-specif ? markers and by staining of lipids with Oil Red O (Chawla and Lazar, 1994).
Adipogenesis was monitored by analysis of lipoprotein lipase (LPL) and aP2 mRNA levels as markers of adipocyte differentiation and by studying morphological changes associated with the differentiation process.
Description for db/db mice: Intraperitoneal glucose tolerance test (IPGTT) in C57BL/6j (A) or db/db (B) mice 10 to 12 weeks old (n=8).
All mice were maintained in a temperature-controlled (25° C.) facility with a strict 12 h ? light/dark cycle and were given free access to food (standard mice chow; DO4, UAR ? France) and water.
C57B1/6J and db/db mice (8 per group) were obtained through the Janvier laboratorie ? (Laval-Le Genest, France).

As to `CC(C)CC(NC(=O)OCC1c2ccccc2-c2ccccc21)C(=O)O` [F-L-Leu, N-(9-fluroroenylmethyloxycarbonyl)-L-Leucine], the “protection of PPARγ from trypsin digestion (conformation change)” value at PPARγ is listed as “produced a protease protection”. The PPARγ species detected result on hPPARγ LBD (1 equivalent of ligand per equivalent of PPARγ: unliganded, 1:1 and 1:2 complexes) is given as “three populations of PPARγ”. In addition, on hPPARγ LBD (8 equivalents of ligand per 1 equivalent of PPARγ, only complex detected), the “number of ligand molecules bound per PPARγ LBD” value turned out to be 2. Besides, in the series on 3T3-L1 cells (setting [1]), the “LPL mRNA levels” value was “significantly stimulated” and the “aP2 mRNA levels” value was “significantly stimulated”. Besides, in the series with 3T3-L1 cells (3T3-L1, 6 days, F-L-Leu 10^−5 M, rosiglitazone 10^−7 M), the “neutral lipid accumulation (Oil Red O staining)” value is reported as “capable of inducing neutral lipid accumulation”. Further, in the series with C57BL/6j mice (30 mg/kg/day), the “insulin sensitivity in normal animals” value is “significantly improve insulin sensitivity”. Further, the “clearance of intraperitoneally administered glucose vs vehicle” value in the series on C57BL/6j mice (C57BL/6j, 10 mg/kg/day) is given as “comparable rate”. In the series with C57BL/6j mice (C57BL/6j, 10 mg/kg/day i.p.), the “maximum glucose levels in IPGTT” value came to 440 mg/dL. Further, in the series on C57BL/6j mice (C57BL/6j, 30 mg/kg/day i.p.), the “maximum glucose levels in IPGTT” value was 320 mg/dL. Besides, in the series on C57BL/6j mice (C57BL/6j, 30 mg/kg/day, vs control or lower dose), the “area under the curve in IPGTT” value was “significantly lower”. For the same compound, the “liver weight relative to control or rosiglitazone-treated mice” value in the series on db/db mice (data not shown) is reported as “tendency to diminution of the liver weight”. Besides, the “insulin sensitivity compared with an equivalent dose of rosiglitazone” value in the series on db/db mice (db/db mice, 1 mg/kg/day as printed) was “improved insulin sensitivity more dramatically”. Further, the “maximal glycemia in IPGTT” value with db/db mice (db/db, 10 mg/kg/day i.p., 7 days, DMSO control 500) came to 420 mg/dL. In the series on db/db mice (db/db, 10 mg/kg/day, 7 days), the “time of maximal glucose level after glucose injection” value was determined as 20 min and the “time to decrease to normal (100 mg/dl) glucose values” was not above 120 min. Moreover, the “fasting serum insulin levels (mean)” value in the series with db/db mice (db/db, 7 days treatment, DMSO group 180) is given as 70 μUI/mL. Besides, the “concentration required for optimal PPARγ activation” value at PPARγ2 is given as 10^−5 M.
